# Assay results published in publication PMC8881610 (Nature Communications, 2022).
# Positions count from the first letter of the chain named.
# Key:
# [1] = molecular target: T1, GIPR (Homo sapiens, UniProt P48546, R196A); assay: Whole-cell binding assay, competition with 125I-GIP1-42; design: acylated tirzepatide to the full-length or modified; Flag; expressed in transfected cells; conditions: GIPR R196A, CHO-K1
# T1 sequence (P48546 22-466 R196A): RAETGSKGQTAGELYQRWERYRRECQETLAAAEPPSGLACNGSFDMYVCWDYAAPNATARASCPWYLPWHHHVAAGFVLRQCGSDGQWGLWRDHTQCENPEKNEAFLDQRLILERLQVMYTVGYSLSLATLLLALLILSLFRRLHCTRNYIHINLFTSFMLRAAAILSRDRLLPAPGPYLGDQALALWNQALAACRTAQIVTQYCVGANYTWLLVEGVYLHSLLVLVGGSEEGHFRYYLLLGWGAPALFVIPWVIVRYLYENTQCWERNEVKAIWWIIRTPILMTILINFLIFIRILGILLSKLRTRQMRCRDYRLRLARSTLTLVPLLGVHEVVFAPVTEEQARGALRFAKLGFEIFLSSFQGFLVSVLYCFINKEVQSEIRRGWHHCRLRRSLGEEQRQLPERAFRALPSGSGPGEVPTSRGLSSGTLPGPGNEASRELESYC
# Procedure, shortened: (§1)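 Transiently transfected CHO-K1 cells expressing WT or mutant GIPR were washed in F-12 with 0.1% BSA or 0.1% casein and 33 mM HEPES, then incubated 2 h at 37 °C. After ice-cold PBS washes, cells were lysed and bound radioactivity counted (CPM).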
# [2] = molecular target: T2, GIPR (Homo sapiens, UniProt P48546, Q30A); assay: as above; design: acylated tirzepatide to the full-length or modified; Flag; expressed in transfected cells; conditions: GIPR Q30A, CHO-K1
# T2 sequence (P48546 22-466 Q30A): T1 sequence (P48546 22-466 R196A) with Q9A, A175R
# Procedure, shortened: as §1
# [3] = molecular target: T3, GIPR (Homo sapiens, UniProt P48546, D191A); assay: cAMP accumulation assay (LANCE Ultra cAMP kit), GIPR WT, mutant or modified constructs; format: cell-based; design: acylated tirzepatide to the full-length or modified; Flag; expressed in transfected cells; host or cells: HEK293T; conditions: HEK-293T, GIPR D191A; HEK293T
# T3 sequence (P48546 22-466 D191A): T1 sequence (P48546 22-466 R196A) with D170A, A175R
# Procedure, shortened: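 HEK293T cells transiently transfected with human GIPR WT or mutant constructs (pcDNA3.1), used after 24 h. The cells were stimulated with peptide agonists for 40 min at RT in HBSS with 5 mM HEPES, 0.1% BSA or casein, and 0.5 mM IBMX. cAMP was read by LANCE Ultra TR-FRET (Eu-cAMP tracer/ULight anti-cAMP, 1 h RT, 620/650 nm).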
# [4] = read-out: binding pIC50 (converted)
structure (smiles),measurement,setting,value
CCCCCCCCCCCCCCCC(=O)N[C@@H](CCC(=O)NCCCC[C@H](NC(=O)[C@H](CC(=O)O)NC(=O)[C@H](CO)NC(=O)[C@@H](NC(=O)[C@H](Cc1ccccc1)NC(=O)[C@@H](NC(=O)CNC(=O)[C@H](CCC(N)=O)NC(=O)C(C)(C)NC(=O)[C@@H](N)Cc1c[nH]cn1)[C@@H](C)O)[C@@H](C)O)C(=O)N[C@@H](CO)C(=O)N[C@@H](CCCCN)C(=O)N[C@@H](Cc1ccc(O)cc1)C(=O)N[C@@H](CC(C)C)C(=O)N[C@@H](CC(=O)O)C(=O)N[C@@H](CCC(=O)O)C(=O)N[C@@H](CCCNC(=N)N)C(=O)N[C@@H](C)C(=O)N[C@@H](C)C(=O)N[C@@H](CCC(N)=O)C(=O)N[C@@H](CC(=O)O)C(=O)N[C@@H](Cc1ccccc1)C(=O)N[C@H](C(=O)N[C@@H](CCC(N)=O)C(=O)N[C@@H](Cc1c[nH]c2ccccc12)C(=O)N[C@@H](CC(C)C)C(=O)N[C@@H](CC(C)C)C(=O)N[C@@H](CC(=O)O)C(=O)NCC(=O)NCC(=O)N1CCC[C@H]1C(=O)N[C@@H](CO)C(=O)N[C@@H](CO)C(=O)NCC(=O)N[C@@H](C)C(=O)N1CCC[C@H]1C(=O)N1CCC[C@H]1C(=O)N1CCC[C@H]1C(=O)N[C@@H](CO)C(N)=O)C(C)C)C(=O)O [Peptide 20],binding Span,[1],71.10 ± 3.42 % WT
same,IC50,[1]; [4],14.5 nM
same,binding Span,[2],92.75 ± 4.50 % WT
same,IC50,[2]; [4],17 nM
same,Emax,[3],51.7 ± 5.96%
